Results taken from publication PMC12749626, “Expediting hit-to-lead progression in drug discovery through reaction prediction and multi-dimensional optimization” (Nature Communications, 2025).

How the values were obtained:
[1] = biological target: PROSTAGLANDIN F REC. (Homo sapiens, UniProt P43088); details: 10 uM; n=2
[2] = biological target: HIV-1 PROTEASE (Human immunodeficiency virus type 1 group M subtype B, UniProt P04585); details: 10 uM; n=2
[3] = biological target: PHOSPHODIESTERASE 4D2 (Homo sapiens, UniProt Q08499); details: 10 uM; n=2
[4] = biological target: GSK-3B (Homo sapiens, UniProt P49841); details: 10 uM; n=2
[5] = biological target: PHOSPHODIESTERASE 3B (Homo sapiens, UniProt Q13370); details: 10 uM; n=2
UniProt Q13370, sequence (Q13370 whole entry): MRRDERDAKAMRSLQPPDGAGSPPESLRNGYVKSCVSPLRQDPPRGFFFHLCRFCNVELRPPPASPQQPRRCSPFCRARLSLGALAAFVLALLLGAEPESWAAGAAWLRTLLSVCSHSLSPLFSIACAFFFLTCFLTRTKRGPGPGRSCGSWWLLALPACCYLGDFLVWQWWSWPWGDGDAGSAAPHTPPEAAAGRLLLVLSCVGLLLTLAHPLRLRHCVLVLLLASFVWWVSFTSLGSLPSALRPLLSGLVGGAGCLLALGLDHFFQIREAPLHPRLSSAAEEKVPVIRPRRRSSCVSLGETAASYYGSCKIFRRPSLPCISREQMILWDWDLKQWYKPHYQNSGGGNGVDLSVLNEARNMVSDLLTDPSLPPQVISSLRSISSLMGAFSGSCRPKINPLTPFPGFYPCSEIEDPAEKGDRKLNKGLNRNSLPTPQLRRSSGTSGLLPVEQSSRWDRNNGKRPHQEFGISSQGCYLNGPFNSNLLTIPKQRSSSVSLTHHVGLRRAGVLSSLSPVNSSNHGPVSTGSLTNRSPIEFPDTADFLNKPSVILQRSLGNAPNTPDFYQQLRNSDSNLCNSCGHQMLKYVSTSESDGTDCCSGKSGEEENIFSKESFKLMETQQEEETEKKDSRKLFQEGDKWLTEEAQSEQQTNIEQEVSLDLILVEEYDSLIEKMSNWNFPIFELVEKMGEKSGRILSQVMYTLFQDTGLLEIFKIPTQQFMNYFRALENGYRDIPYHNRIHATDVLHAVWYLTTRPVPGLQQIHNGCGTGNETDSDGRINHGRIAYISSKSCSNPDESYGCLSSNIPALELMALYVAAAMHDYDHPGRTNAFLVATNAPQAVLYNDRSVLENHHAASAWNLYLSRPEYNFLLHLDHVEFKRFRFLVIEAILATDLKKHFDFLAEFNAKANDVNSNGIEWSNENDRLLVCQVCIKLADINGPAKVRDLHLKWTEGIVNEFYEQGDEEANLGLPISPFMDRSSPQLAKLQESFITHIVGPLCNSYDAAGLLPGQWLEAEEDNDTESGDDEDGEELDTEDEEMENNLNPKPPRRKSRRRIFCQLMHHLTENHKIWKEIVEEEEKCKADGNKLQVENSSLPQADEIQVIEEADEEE

[6] = biological target: β1-ADRENOCEPTOR (Homo sapiens, UniProt P08588); details: 10 uM; n=2
[7] = biological target: A[…]. ENZ. (Homo sapiens, UniProt P12821); details: 10 uM; n=2
[8] = biological target: GLUC[…]. (Homo sapiens, UniProt P04150); details: 10 uM; n=2
GLUC[…]., sequence (P04150 whole entry): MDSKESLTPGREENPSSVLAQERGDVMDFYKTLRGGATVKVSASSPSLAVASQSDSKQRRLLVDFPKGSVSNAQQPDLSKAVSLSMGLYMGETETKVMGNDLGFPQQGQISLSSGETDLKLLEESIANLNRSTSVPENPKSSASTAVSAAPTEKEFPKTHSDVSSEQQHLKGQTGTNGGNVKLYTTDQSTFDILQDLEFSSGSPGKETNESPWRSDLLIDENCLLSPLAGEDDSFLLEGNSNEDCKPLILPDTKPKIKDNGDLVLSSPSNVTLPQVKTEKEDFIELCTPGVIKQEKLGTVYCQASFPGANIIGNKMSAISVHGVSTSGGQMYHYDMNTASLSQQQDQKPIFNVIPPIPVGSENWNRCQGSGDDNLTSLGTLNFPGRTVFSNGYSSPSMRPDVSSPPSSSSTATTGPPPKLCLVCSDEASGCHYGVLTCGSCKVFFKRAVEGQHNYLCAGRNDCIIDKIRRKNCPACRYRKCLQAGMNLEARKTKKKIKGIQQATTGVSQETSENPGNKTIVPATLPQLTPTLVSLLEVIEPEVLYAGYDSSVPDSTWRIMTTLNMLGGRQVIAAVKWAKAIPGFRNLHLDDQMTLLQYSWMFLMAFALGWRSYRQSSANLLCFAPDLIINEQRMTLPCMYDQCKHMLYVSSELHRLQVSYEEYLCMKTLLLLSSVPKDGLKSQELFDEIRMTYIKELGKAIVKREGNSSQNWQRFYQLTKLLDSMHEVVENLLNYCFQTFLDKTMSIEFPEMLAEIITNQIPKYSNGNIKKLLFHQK

[9] = biological target: ESTROGEN REC. α (Homo sapiens, UniProt P03372); details: 10 uM; n=2
[10] = tested on: closely related brain hydrolases; details: activity-based protein profiling, mouse brain, 10 µM
[11] = biological target: C[…]. CB1 (Homo sapiens, UniProt P21554); details: 10 uM; n=2
[12] = biological target: SEROTONIN TRANSPORTER (Homo sapiens, UniProt P31645); details: 10 uM; n=2
[13] = biological target: ABL1 (Homo sapiens, UniProt P00519); details: 10 uM; n=2
[14] = biological target: […]. M1 (Homo sapiens, UniProt P11229); details: 10 uM; n=2
[15] = biological target: α2A-ADRENOCEPTOR (Homo sapiens, UniProt P08913); details: 10 uM; n=2
[16] = biological target: HISTAMINE H3 REC. (Homo sapiens, UniProt Q9Y5N1); details: 10 uM; n=2
HISTAMINE H3 REC., sequence (Q9Y5N1 whole entry): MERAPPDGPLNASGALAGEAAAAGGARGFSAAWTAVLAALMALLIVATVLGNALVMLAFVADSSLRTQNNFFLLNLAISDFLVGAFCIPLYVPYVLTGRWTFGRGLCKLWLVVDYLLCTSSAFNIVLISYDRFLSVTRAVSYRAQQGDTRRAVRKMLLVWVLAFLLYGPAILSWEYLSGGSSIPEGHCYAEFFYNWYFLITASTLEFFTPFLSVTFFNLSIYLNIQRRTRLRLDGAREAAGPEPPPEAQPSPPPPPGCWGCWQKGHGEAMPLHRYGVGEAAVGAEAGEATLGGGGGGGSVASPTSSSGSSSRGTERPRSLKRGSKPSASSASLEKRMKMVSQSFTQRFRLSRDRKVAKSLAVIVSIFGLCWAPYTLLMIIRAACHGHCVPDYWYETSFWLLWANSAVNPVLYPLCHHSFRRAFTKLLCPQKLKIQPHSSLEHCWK

[17] = biological target: ANDROGEN REC. (Homo sapiens, UniProt P10275); details: 10 uM; n=2
[18] = biological target: DOPAMINE D2 REC. (short) (Homo sapiens, UniProt P14416); details: 10 uM; n=2
[19] = biological target: HISTAMINE H2 REC. (Homo sapiens, UniProt P25021); details: 10 uM; n=2
[20] = biological target: GSK-3A (Homo sapiens, UniProt P49840); details: 10 uM; n=2
GSK-3A, sequence (P49840 whole entry): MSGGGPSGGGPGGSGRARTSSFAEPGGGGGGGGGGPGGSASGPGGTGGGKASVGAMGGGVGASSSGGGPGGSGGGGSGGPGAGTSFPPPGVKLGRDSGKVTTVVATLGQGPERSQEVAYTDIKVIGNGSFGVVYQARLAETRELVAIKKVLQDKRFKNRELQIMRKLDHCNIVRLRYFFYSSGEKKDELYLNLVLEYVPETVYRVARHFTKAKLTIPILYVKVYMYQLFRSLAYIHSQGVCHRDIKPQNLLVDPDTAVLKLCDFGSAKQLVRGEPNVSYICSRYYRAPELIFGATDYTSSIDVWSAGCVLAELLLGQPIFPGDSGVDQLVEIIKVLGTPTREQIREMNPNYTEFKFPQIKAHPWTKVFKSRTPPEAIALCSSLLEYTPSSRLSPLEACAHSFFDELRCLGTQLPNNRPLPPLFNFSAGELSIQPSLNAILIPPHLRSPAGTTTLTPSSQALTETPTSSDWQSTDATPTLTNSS

[21] = biological target: CDK2 (Homo sapiens, UniProt P24941); details: 10 uM; n=2
[22] = biological target: NORE[…]. (Homo sapiens, UniProt P23975); details: 10 uM; n=2
[23] = biological target: CYCLO OXYGENASE 2 (Homo sapiens, UniProt P35354); details: 10 uM; n=2
[24] = biological target: 5HT1A (Homo sapiens, UniProt P08908); details: 10 uM; n=2
[25] = biological target: β2-ADRENOCEPTOR (Homo sapiens, UniProt P07550); details: 10 uM; n=2
[26] = biological target: ADENOSINE A3 REC. (Homo sapiens, UniProt P0DMS8); details: 10 uM; n=2
[27] = biological target: ADENOSINE A1 REC. (Homo sapiens, UniProt P30542); details: 10 uM; n=2
ADENOSINE A1 REC., sequence (P30542 whole entry): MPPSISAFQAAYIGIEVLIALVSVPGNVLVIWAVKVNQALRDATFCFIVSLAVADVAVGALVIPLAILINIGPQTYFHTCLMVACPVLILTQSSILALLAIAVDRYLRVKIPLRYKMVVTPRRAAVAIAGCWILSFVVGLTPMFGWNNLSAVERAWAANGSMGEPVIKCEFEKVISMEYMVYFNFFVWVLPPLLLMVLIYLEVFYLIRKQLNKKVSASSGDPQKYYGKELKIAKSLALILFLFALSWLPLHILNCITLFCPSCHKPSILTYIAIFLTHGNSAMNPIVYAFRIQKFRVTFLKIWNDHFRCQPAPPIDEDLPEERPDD

[28] = biological target: […]. M2 (Homo sapiens, UniProt P08172); details: 10 uM; n=2
[29] = biological target: T1, human MAGL (Homo sapiens, UniProt Q99685); details: = pIC50 - cLogP
T1 sequence (Q99685 1-303): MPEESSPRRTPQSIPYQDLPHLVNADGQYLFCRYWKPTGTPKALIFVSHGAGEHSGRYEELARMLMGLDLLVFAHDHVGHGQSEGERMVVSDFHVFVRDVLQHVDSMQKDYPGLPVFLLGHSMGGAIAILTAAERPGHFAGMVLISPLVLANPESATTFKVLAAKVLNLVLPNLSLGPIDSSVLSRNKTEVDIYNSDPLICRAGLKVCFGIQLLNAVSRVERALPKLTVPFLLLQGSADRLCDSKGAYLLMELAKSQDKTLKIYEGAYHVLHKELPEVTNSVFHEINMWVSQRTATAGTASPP

[30] = biological target: ZAP70 (Homo sapiens, UniProt P43403); details: 10 uM; n=2
[31] = biological target: HISTAMINE H1 REC. (Homo sapiens, UniProt P35367); details: 10 uM; n=2
[32] = biological target: 5HT2B (Homo sapiens, UniProt P41595); details: 10 uM; n=2
[33] = biological target: PPARγ (Homo sapiens, UniProt P37231); details: 10 uM; n=2
[34] = biological target: XANTHINE OXIDASE (Bos taurus, UniProt P80457); details: 10 uM; n=2
XANTHINE OXIDASE, sequence (P80457 2-1332): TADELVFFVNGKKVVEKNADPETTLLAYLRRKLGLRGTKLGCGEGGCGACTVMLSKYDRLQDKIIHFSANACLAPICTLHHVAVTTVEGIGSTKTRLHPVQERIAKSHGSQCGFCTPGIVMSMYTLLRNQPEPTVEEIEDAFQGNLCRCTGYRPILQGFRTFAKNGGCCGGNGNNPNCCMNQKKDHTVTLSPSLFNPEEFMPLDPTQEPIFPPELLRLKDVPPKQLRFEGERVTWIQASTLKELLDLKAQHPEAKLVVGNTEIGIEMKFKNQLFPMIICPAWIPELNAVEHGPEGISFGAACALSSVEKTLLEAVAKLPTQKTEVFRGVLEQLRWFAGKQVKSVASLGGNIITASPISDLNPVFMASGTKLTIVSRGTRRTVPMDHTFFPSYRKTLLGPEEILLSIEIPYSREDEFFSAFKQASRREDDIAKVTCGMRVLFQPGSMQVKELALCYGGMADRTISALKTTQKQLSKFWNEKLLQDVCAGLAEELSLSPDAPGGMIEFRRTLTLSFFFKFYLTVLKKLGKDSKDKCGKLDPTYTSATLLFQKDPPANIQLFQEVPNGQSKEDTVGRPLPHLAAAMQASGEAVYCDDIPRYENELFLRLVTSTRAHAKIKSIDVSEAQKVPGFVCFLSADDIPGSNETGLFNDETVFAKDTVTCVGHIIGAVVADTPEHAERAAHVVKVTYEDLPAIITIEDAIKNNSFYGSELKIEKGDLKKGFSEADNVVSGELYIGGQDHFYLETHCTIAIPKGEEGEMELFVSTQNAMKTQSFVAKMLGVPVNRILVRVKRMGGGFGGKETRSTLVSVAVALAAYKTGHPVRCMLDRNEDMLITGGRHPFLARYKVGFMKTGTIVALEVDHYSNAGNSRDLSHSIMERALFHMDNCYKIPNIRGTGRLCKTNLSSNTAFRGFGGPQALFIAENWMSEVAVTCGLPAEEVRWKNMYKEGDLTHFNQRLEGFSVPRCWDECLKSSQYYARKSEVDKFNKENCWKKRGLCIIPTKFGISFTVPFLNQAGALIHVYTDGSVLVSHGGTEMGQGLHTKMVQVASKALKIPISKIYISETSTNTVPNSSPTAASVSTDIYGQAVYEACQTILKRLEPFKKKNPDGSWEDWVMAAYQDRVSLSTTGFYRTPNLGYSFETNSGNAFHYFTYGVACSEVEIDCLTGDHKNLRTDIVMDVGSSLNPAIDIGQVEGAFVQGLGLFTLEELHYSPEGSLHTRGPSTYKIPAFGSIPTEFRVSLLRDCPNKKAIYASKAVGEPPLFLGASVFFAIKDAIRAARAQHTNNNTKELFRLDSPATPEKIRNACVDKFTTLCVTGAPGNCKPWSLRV

[35] = biological target: 5HT3 (Homo sapiens, UniProt P46098); details: 10 uM; n=2
[36] = biological target: ACETYLCHOLINESTERASE (Homo sapiens, UniProt P22303); details: 10 uM; n=2
[37] = biological target: DOPAMINE D1 REC. (Homo sapiens, UniProt P21728); details: 10 uM; n=2
DOPAMINE D1 REC., sequence (P21728 whole entry): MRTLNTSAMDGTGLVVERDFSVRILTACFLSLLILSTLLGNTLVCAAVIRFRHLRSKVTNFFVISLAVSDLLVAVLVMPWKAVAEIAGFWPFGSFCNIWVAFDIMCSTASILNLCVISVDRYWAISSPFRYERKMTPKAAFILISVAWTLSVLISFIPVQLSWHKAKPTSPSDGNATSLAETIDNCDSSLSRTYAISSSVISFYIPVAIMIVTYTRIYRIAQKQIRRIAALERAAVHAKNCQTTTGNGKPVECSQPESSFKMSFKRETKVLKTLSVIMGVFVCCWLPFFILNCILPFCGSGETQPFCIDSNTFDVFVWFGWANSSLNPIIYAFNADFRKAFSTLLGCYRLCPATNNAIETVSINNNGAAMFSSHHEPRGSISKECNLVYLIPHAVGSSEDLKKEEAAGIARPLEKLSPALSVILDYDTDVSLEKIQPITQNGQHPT

O=C(c1ccc2nc(-c3cnccc3C3(C4CCC4)CC3)oc2c1)N1CCN(c2nc3nc(Cl)ccc3o2)CC1 [Compound 27]
PROSTAGLANDIN F REC. percent activity or inhibition compared to the assay reference [1]: 0%
HIV-1 PROTEASE percent activity or inhibition compared to the assay reference [2]: 34%
PHOSPHODIESTERASE 4D2 percent activity or inhibition compared to the assay reference [3]: -7%
GSK-3B percent activity or inhibition compared to the assay reference [4]: -8%
PHOSPHODIESTERASE 3B percent activity or inhibition compared to the assay reference [5]: 1%
β1-ADRENOCEPTOR percent activity or inhibition compared to the assay reference [6]: 4%
A[…]. ENZ. percent activity or inhibition compared to the assay reference [7]: -12%
GLUC[…]. percent activity or inhibition compared to the assay reference [8]: 5%
ESTROGEN REC. α percent activity or inhibition compared to the assay reference [9]: -20%
selectivity toward MAGL over off-targets and closely related brain hydrolases [10]: high selectivity
C[…]. CB1 percent activity or inhibition compared to the assay reference [11]: 18%
SEROTONIN TRANSPORTER percent activity or inhibition compared to the assay reference [12]: 1%
ABL1 percent activity or inhibition compared to the assay reference [13]: -3%
[…]. M1 percent activity or inhibition compared to the assay reference [14]: 52%
α2A-ADRENOCEPTOR percent activity or inhibition compared to the assay reference [15]: 0%
HISTAMINE H3 REC. percent activity or inhibition compared to the assay reference [16]: 15%
ANDROGEN REC. percent activity or inhibition compared to the assay reference [17]: -6%
DOPAMINE D2 REC. (short) percent activity or inhibition compared to the assay reference [18]: 13%
HISTAMINE H2 REC. percent activity or inhibition compared to the assay reference [19]: -4%
GSK-3A percent activity or inhibition compared to the assay reference [20]: 30%
CDK2 percent activity or inhibition compared to the assay reference [21]: 0%
NORE[…]. percent activity or inhibition compared to the assay reference [22]: 28%
CYCLO OXYGENASE 2 percent activity or inhibition compared to the assay reference [23]: 6%
5HT1A percent activity or inhibition compared to the assay reference [24]: 28%
β2-ADRENOCEPTOR percent activity or inhibition compared to the assay reference [25]: -2%
ADENOSINE A3 REC. percent activity or inhibition compared to the assay reference [26]: 7%
ADENOSINE A1 REC. percent activity or inhibition compared to the assay reference [27]: 13%
[…]. M2 percent activity or inhibition compared to the assay reference [28]: 76%
Lipophilic efficiency (LipE) [29]: 3.72
ZAP70 percent activity or inhibition compared to the assay reference [30]: -15%
HISTAMINE H1 REC. percent activity or inhibition compared to the assay reference [31]: 48%
5HT2B percent activity or inhibition compared to the assay reference [32]: 10%
PPARγ percent activity or inhibition compared to the assay reference [33]: 9%
XANTHINE OXIDASE percent activity or inhibition compared to the assay reference [34]: 6%
5HT3 percent activity or inhibition compared to the assay reference [35]: -3%
ACETYLCHOLINESTERASE percent activity or inhibition compared to the assay reference [36]: -4%
DOPAMINE D1 REC. percent activity or inhibition compared to the assay reference [37]: -2%
